Results taken from patent publication US5760036A, “Aminediol protease inhibitors” (E. R. Squibb & Sons, Inc., priority 1995, dated 1998).
pIC50: −log10 of the molar value. Counter-ions that a name gives are not always drawn. Like-named read-outs stand apart in the source and are kept apart here.

Key:
[1] = tested on: RF strain of HIV (CEM-SS cells); experiment: Cell Culture Anti-HIV Activity (cell viability, formazan); type: cell-based; details: CEM-SS cells, RF strain of HIV, multiplicity of infection 0.04, 6 days at 37° C., 450 nm, read-out: HIV (CEM Cells) IC50
How it was run: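 CEM-SS cells (5000/well) infected with HIV RF at MOI 0.04, exposed to half-log serial compound dilutions, incubated 6 days at 37° C. Viability read by tetrazolium reduction to formazan, absorbance 450 nm. IC50 is the concentration raising formazan in infected cells to 50% of uninfected, drug-free cells.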

HIV protease = molecular target: T1, HIV protease (Human immunodeficiency virus type 1 group M subtype B, UniProt P04585); experiment: HIV Protease Assay; type: biochemical
T1 construct: and purified protease
How it was run: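 Purified protease cleaved 450 μM octapeptide substrate in 50 mM sodium acetate pH 5.5 with 100 μg/ml BSA for 30 minutes at 37° C; product analyzed by reverse-phase HPLC at UV220 after H3PO4 quench. Inhibitors tested at final 10 μM with 4% DMSO.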

[2] = Human immunodeficiency virus 1, CEM-SS, 144 h
[3] = pH 5.5, 10 μM inhibitor, 4% DMSO, 450 μM substrate, pH 5.5, 30 minutes at 37° C., RP-HPLC, read-out: HIV Protease % Inhibition at 10 μM

Compound `CC(C)(C)OC(=O)N[C@@H](Cc1ccccc1)[C@H](O)CNC[C@@H](O)[C@H](Cc1ccccc1)NC(=O)OC1CCS(=O)(=O)C1` (stereo partly drawn) [Compound 360, [1S-(1R*,2S*)]-[Iminobis[2-hydroxy-1-(phenylmethyl)-3,1-propanediyl)]bis[carbamic acid], 1,1-dimethylethyl tetrahydro-1,1-dioxo-3-thienyl ester] has a pIC50 [1, 2] of 6.35 and an inhibition at 10 µM (HIV protease; [3]) of 96%.

Compound `CC(C)(C)OC(=O)N[C@@H](Cc1ccccc1)[C@H](O)CNC[C@@H](O)[C@H](CC1CCCCC1)NC(=O)OC(C)(C)C` [Compound 15, [1S-[1R*,2S*(2S*,3R*)]]-[3-[[4-Cyclohexyl-3-[[(1,1-dimethylethoxy)carbonyl]-amino]-2-hydroxybutyl]amino-2-hydroxy-1-(phenylmethyl)propyl]carbamic acid, 1,1-dimethylethyl ester] has a pIC50 [1, 2] of 6.42 and an inhibition at 10 µM (HIV protease; [3]) of 98%.

`CC(C)(C)OC(=O)N[C@@H](Cc1ccccc1)[C@H](O)CNC[C@@H](O)[C@H](Cc1ccccc1)NC(=O)[C@@H](NC(=O)CNC=O)C(C)(C)C` (relative stereo) [Compound 286, [1R*,2S*(2S*,3R*)]-N-[3-[[(1,1-Dimethylethoxy)carbonyl]amino]-2-hydroxy-4-phenylbutyl]amino]-2-hydroxy-1-(phenylmethyl)propyl]-N^2-(N-formylglycyl)-3-methyl-L-valinamide] showed a pIC50 [1, 2] of 5.30 and an inhibition at 10 µM (HIV protease; [3]) of 99%.

In the case of `CC(C)(C)OC(=O)N[C@@H](Cc1ccccc1)[C@H](O)CNC[C@@H](O)[C@H](Cc1ccccc1)NC(=O)C1(O)COCC1(C)C` (single isomer, unassigned; isomer a) [Compound 364, [1S-[1R*,2S*(2S*,3R*)]]-[2-Hydroxy-3-[[tetrahydro-3-hydroxy-4,4-dimethyl-3-furanyl)carbonyl]amino]-4-phenylbutyl]amino]-1-(phenylmethyl)-propyl]carbamic acid, 1,1-dimethylethyl ester, Isomer A], the pIC50 [1, 2] was 6.66 and the “HIV Protease % Inhibition at 10 μM” value (HIV protease; 10 μM inhibitor, 4% DMSO, 450 μM substrate, pH 5.5, 30 minutes at 37° C., RP-HPLC) was 98%.

`CC(C)(C)OC(=O)N[C@@H](Cc1ccccc1)[C@H](O)CNC[C@@H](O)[C@H](Cc1ccccc1O)NC(=O)OC(C)(C)C` [Compound 350, [1S-[1R*,2S*(2S*,3R*)]]-[3-[[3-[[(1,1-Dimethylethoxy)carbonyl]amino]-2-hydroxy-4-(2-hydroxyphenyl)butyl]amino]-2-hydroxy-1-(phenylmethyl)propyl]carbamic acid, 1,1-dimethylethyl ester] gave a pIC50 [1, 2] of 6.30 and an inhibition at 10 µM (HIV protease; [3]) of 98%.

`CC(C)(C)OC(=O)N[C@@H](Cc1ccccc1)[C@H](O)CNC[C@@H](O)[C@H](Cc1ccccc1)NC(=O)C(C)(C)O` [Compound 278, [1S-[1R*,2S*(2S*,3R*)]]-[2-Hydroxy-3-[[2-hydroxy-3-[(2-hydroxy-2-methyl-1-oxoproply)amino]-4-phenylbutyl]amino]-1-(phenylmethyl)propyl]carbamic acid, 1,1-dimethylethyl ester] was tested, and the pIC50 [1, 2] was 6.08 and the inhibition at 10 µM (HIV protease; pH 5.5, read-out: HIV Protease % Inhibition at 10 μM) was 94%.

Compound `CC(C)(CO)OC(=O)N[C@@H](Cc1ccccc1)[C@H](O)CNC[C@@H](O)[C@H](Cc1ccccc1)NC(=O)[C@](C)(O)C(C)(C)C` [Compound 333, [1S-[1R*,2S*[2S*3R*(S*)]]]-[3-[[3-[(2-Hydroxy-2,3,3-trimethyl-1-oxobutyl)amino]-2-hydroxy-4-phenylbutyl]amino-2-hydroxy-1-(phenylmethyl)propyl]carbamic acid, 2-hydroxy-1,1-dimethylethyl ester] has a pIC50 [1, 2] of 6.82 and an inhibition at 10 µM (HIV protease; [3]) of 100%.

With `CC(C)[C@@H](C(=O)N[C@@H](Cc1ccccc1)[C@H](O)CNC[C@@H](O)[C@H](Cc1ccccc1)NC(=O)OC(C)(C)C)N(C)C(=O)OCc1ccccc1` [Compound 66, [S-[1R*,2S*(2S*,3R*)]]-N-[3-[[3-[(1,1-Dimethylethoxy)carbonyl)amino]-2-hydroxy-4-[phenylbutyl]amino]-2-hydroxy-1-(phenylmethyl)propyl]-N^2-methyl-N^2 [(phenylmethoxy)-carbonyl]-L-valinamide] the pIC50 [1, 2] was 6.57 and the inhibition at 10 µM (HIV protease; [3]) was 99%.

In the case of `CC(C)(C)OC(=O)N[C@@H](Cc1ccccc1)[C@H](O)CNC[C@@H](O)[C@H](Cc1ccccc1)NC(=O)C(O)C(C)(C)C` (some centres unmarked) [Compound 214], the pIC50 [1, 2] was 7.30 and the inhibition at 10 µM (HIV protease; [3]) was 97%.

Work on `CC(C)[C@H](NC(=O)CC(N)c1ccccc1)C(=O)N[C@@H](Cc1ccccc1)[C@H](O)CNC[C@@H](O)[C@H](Cc1ccccc1)NC(=O)OC(C)(C)C` (stereo partly drawn) [Compound 86, [S-[1R*,2S*(2S*,3R*)]-N^2 (3-Amino-1-oxo-3-phenylpropyl)-N-[3-[[3-[[(1,1-dimethylethoxy)carbonyl]amino]-2-hydroxy-4-phenylbutyl]amino-[-2-hydroxy-1-(-phenylmethyl)propyl]-L-valinamide, fumarate (2:3) salt] yielded a pIC50 [1, 2] of 5.74 and an inhibition at 10 µM (HIV protease; [3]) of 78%.

With `CN(C(=O)OC(C)(C)C)[C@@H](Cc1ccccc1)[C@H](O)CNC[C@@H](O)[C@H](Cc1ccccc1)NC(=O)OC(C)(C)C` [Compound 132, [1S-[1R*,2S*(2S*,3R*)]]-3-[[(1,1-Dimethylethoxy)carbonyl]amino]-2-hydroxy-4-phenylbutyl]amino]-2-hydroxy-1-(phenylmethyl)-propyl]methylcarbamic acid, 1,1-dimethylethyl ester] the pIC50 [1, 2] was < 5.52 and the inhibition at 10 µM (HIV protease; [3]) was 65%.

With `CC(C)[C@H](NC(=O)OCc1ccccn1)C(=O)N[C@@H](Cc1ccccc1)[C@H](O)CNC[C@@H](O)[C@H](Cc1ccccc1)NC(=O)OC(C)(C)C` [Compound 70, [S-[1R*,2S*(2S*,3R*)]]-N-[3-[[3-[[(1,1-Dimethylethoxy)carbonyl]amino]-2-hydroxy-4-phenylbutyl]amino]-2-hydroxy-1-(phenylmethyl)-propyl]-N^2-(2-pyridinylmethoxy)carbonyl]-L-valinamide] the pIC50 [1, 2] was 6.30 and the inhibition at 10 µM (HIV protease; [3]) was 100%.

`COCCCCOc1ccc(C[C@H](NC(=O)OC(C)(C)C)[C@H](O)CNC[C@@H](O)[C@H](Cc2ccccc2)NC(=O)OC(C)(C)C)cc1` [Compound 300, [1S-[1R*,2S*(2S*,3R*)]]-[3-[[3-[[(1,1-Dimethylethoxy)-carbonyl]amino]-2-hydroxy-4-[4-(4-methoxybutoxy)phenyl]butyl]amino]-2-hydroxy-1-(phenylmethyl)propyl]carbamic acid, 1,1-dimethylethyl ester] was tested, and the pIC50 [1, 2] was 7.52 and the inhibition at 10 µM (HIV protease; [3]) was 99%.

Work on `CC1(C)CCCC1(O)C(=O)N[C@@H](Cc1ccccc1)[C@H](O)CNC[C@@H](O)[C@H](Cc1ccccc1)NC(=O)C1(O)CCCC1(C)C` (single isomer, unassigned; isomer a) [Compound 336] yielded a pIC50 [1] of 7.40 and an inhibition at 10 µM (HIV protease; [3]) of 100%.

With `CC(C)[C@H](NC(=O)[C@H](C)N)C(=O)N[C@@H](Cc1ccccc1)[C@H](O)CNC[C@@H](O)[C@H](Cc1ccccc1)NC(=O)OC(C)(C)C` [Compound 96, [S-[1R*,2S*(2S*,3R*)]-N-]3-[[3-[[(1,1-Dimethylethoxy)carbonyl]amino]-2-hydroxy-4-phenylbutyl]amino]-2-hydroxy-1(phenylmethyl)propyl]-N^2-(L-alanyl)-L-valinamide, fumarate salt] the pIC50 [1, 2] was < 5.12 and the inhibition at 10 µM (HIV protease; [3]) was 100%.

`CC(C)(C)OC(=O)N[C@@H](Cc1ccccc1)[C@H](O)CNC[C@@H](O)[C@H](Cc1ccccc1)NC(=O)[C@@H](NC(=O)OCc1cc2cccnc2o1)C(C)(C)C` [Compound 352, [S-[1R*,2S*(2S*,3R*)]]-[2,2-Dimethyl-1-[[[3-[[3-[[(1,1-dimethylethoxy)carbonyl]amino]-2-hydroxy-4-phenylbutyl]amino]-2-hydroxy-1-(phenylmethyl)-propyl]amino]carbonyl]propyl]carbamic acid, (2-furo[2,3-b]pyridinyl)methyl ester] showed a pIC50 [1, 2] of 7.00 and an inhibition at 10 µM (HIV protease; [3]) of 99%.

With `CN(CC(=O)[C@H](Cc1ccccc1)NC(=O)OC(C)(C)C)C[C@H](O)[C@H](Cc1ccccc1)NC(=O)OC(C)(C)C` [Compound 199, [1S-[1R*(2R*,3R*)]]-3-[[3[[-(1,1-Dimethylethoxy)carbonyl]-amino]-2-hydroxy-4-phenylbutyl]-methylamino]-2-oxo-1-(phenylmethyl)-propyl]carbamic acid, 1,1-dimethylethyl ester] the pIC50 [1, 2] was < 4.77 and the inhibition at 10 µM (HIV protease; [3]) was 3%.

Work on `CC(C)(C)OC(=O)N[C@@H](C/C=C/c1ccc(O)cc1)[C@H](O)CNC[C@@H](O)[C@H](Cc1ccccc1)NC(=O)OC(C)(C)C` [Compound 235, [1S-[1R*,2S*[2S*,3R*(E)]]]-[3-[[3-[[(1,1-Dimethylethoxy)carbonyl]amino]-2-hydroxy-6-(4-hydroxyphenyl)-5-hexenyl]amino]-2-hydroxy-1-(phenylmethyl)propyl]carbamic acid, 1,1-dimethylethyl ester] yielded a pIC50 [1, 2] of 6.46 and an inhibition at 10 µM (HIV protease; [3]) of 97%.

`CC(C)[C@H](NC(=O)[C@@H](C)O)C(=O)N[C@@H](Cc1ccccc1)[C@H](O)CNC[C@@H](O)[C@H](Cc1ccccc1)NC(=O)OC(C)(C)C` [Compound 221, [1S-[[1R*,2S*(2S*,3R*)],N^2-(S*) ]]-N-[3-[[3-[[(1,1-Dimethylethoxy)carbonyl]amino]-2-hydroxy-4-phenylbutyl]amino]-2-hydroxy-1-(phenylmethyl)propyl]-N^2-(2-hydroxy-1-oxopropyl)-L-valinamide] was tested, and the pIC50 [1, 2] was 5.96 and the inhibition at 10 µM (HIV protease; [3]) was 96%.
